The source of these data is PubChem BioAssay AID602210 (Sanford-Burnham Center for Chemical Genomics, 2012).

Activity calls are given as the source filed them. No rule for the calls is given here.

A short description of the test: modulators of 2-deoxyglucose-induced H9c2 death, dose response, myocardial damage modulator project, cell-based, ATPlite luminescence, rat, set 2 (AID 602210). The conditions noted are these: H9c2 rat cardiomyoblasts, 2-deoxyglucose-induced death, 2 h. Background: Cellular ATP, detected with luciferase, serves as a proxy for viable cell number.
For orientation: IC50 means the point on the concentration scale where inhibition reaches its midpoint. Take `C[C@H](CO)N1C[C@H](C)[C@@H](CN(C)S(=O)(=O)c2cccs2)Oc2ccc(NC(=O)Nc3ccccc3)cc2C1=O`: the IC50 was > 79 µM (inactive).
`CCOC(=O)N1CCc2c(sc(NC(=O)CN3CCOCC3)c2C(=O)Nc2ccccc2)C1`: the IC50 was > 79 µM (inactive).
Under `COc1ccccc1CN(C)C(=O)c1cc(-c2cc(OC)c(OC)c(OC)c2)nc2ccccc12` stands 10.4 µM (inactive).
With `COc1cccc(CN(C)C(=O)C(Cc2ccccc2)NC(=O)c2ccccc2)c1OC` (configuration not stated), the IC50 was 20.8 µM (inactive).
For the compound `NC(=O)c1nsc(C(=O)N(c2ccccc2F)C(C(=O)NCc2ccccc2)c2ccc(O)cc2)c1N` (configuration not stated), the IC50 is 3.04 µM.
With `COc1cc(C(=O)Nc2nc(-c3cccs3)cs2)cc(OC)c1OC`, the IC50 is 8.7 µM.
Turning to `COC(=O)c1ccc(C(NC(=O)OCc2ccccc2)/C(C)=C/[C@@H](C)C(=O)NCc2ccc(OC)c(OC)c2)cc1` (some centres not stated), the IC50 was 23.8 µM (inactive).
The value for `COc1cc(/C=N/NC(=O)c2cccnc2)ccc1OCC(=O)Nc1ccccc1Cl` was 7.84 µM.
As for `NS(=O)(=O)c1ccc(N=Cc2c(O)n(-c3nccs3)c(=O)c3ccccc23)cc1`, the IC50 is 37.2 µM (inactive).
Under `COc1cc(-c2cc(NC=O)c3ncc(-c4ccc(C(C)=O)cc4)n3c2)ccc1O` stands > 79 µM (inactive); under `O=C(c1ccc(-c2nc3ccccc3s2)o1)N1CCN(c2ccccc2O)CC1`, 13.2 µM (inactive); under `COc1cc(/C=C/C(=O)Nc2ccc3nc4n(c(=O)c3c2)CCCC4)cc(OC)c1OC`, 20.6 µM (inactive).
Take `COc1cc(/C=N/NC(=O)c2cccnc2)ccc1OS(=O)(=O)c1cc(C)ccc1C`: the IC50 was 18.5 µM (inactive).
For the compound `COc1ccc2[nH]c(=O)c(CN(Cc3cccnc3)S(=O)(=O)c3ccccc3F)cc2c1`, the IC50 is 2.74 µM.
`COc1ccc(-c2cc(C(=O)Nc3ccccc3N3CCOCC3)c3ccccc3n2)cc1OC`: the IC50 was 7.58 µM.
Under `CCOc1cc(/C=C(\C#N)C(=O)Nc2ccc(S(N)(=O)=O)cc2)ccc1OCCN1CCOCC1` stands 9.62 µM; under `COc1ccc(C(=O)COC(=O)C(CCCCN2C(=O)C3C4C=CC(C4)C3C2=O)N2C(=O)C3C4C=CC(C4)C3C2=O)cc1` (configuration not stated), 11.8 µM (inactive); under `COc1cc(NC(=O)c2cc3nc(-c4ccccc4)cc(-c4ccccc4)n3n2)cc(OC)c1OC`, 7.15 µM.
The value for `Cc1[nH]c2ccccc2c1/C=N/NC(=O)c1cc(-c2cccs2)[nH]n1` was 5.8 µM; that for `CCOc1ccc(C(C(=O)NC2CCCC2)N(C(=O)c2snc(C(N)=O)c2N)c2cccc(O)c2)cc1` (configuration not stated) was 6.74 µM.
Take `O=C1OCCN1C(=O)[C@H]1[C@H](c2ccc([N+](=O)[O-])cc2)C(c2ccc(F)cc2)=NN1c1ccc(Br)cc1`: the IC50 was 8.93 µM.
As for `CN(C(=O)c1sc2nc(N3CCOCC3)c3c(c2c1N)CCCC3)c1ccccc1`, the IC50 was 9.97 µM.
Consider `COc1ccccc1NC(=O)c1cc(-c2cc(OC)c(OC)c(OC)c2)nc2ccccc12`, for which the IC50 is 8.68 µM.
Consider `O=C(COC(=O)c1c2c(nc3ccccc13)/C(=C/c1cccc([N+](=O)[O-])c1)CCC2)NC1CCS(=O)(=O)C1` (configuration not stated), for which the IC50 is 12.9 µM (inactive).
Take `COc1cc(-c2cc3nc(NCCOc4ccccc4)ccn3n2)cc(OC)c1OC`: the IC50 is 15.8 µM (inactive).
The value for `Cc1nnc2ccc(-c3cccc(NC(=O)c4ccc(Cl)nc4)c3)nn12` was 45.9 µM (inactive); that for `COc1ccc(OC)c(Nc2nc(N)c([N+](=O)[O-])c(N3CCOCC3)n2)c1` was 27.5 µM (inactive).
Turning to `CCn1c(O)c(/C=N/N=C2CCCCC2)c2cc(C3=NNC(=O)CC3)ccc21`, the IC50 was 21.6 µM (inactive).
The value for `Brc1ccc(-c2ccc(/C=N/Nc3nc(N4CCOCC4)nc(N4CCOCC4)n3)o2)cc1` was 5.7 µM; that for `Cc1nn(-c2ccccc2)c(C)c1/C=N/NC(=O)c1cc(C(C)(C)C)[nH]n1` was 44.7 µM (inactive).
Regarding `O=C(Nc1ccccc1)c1nc[nH]c1C(=O)NCCNC(=O)c1[nH]cnc1C(=O)Nc1ccccc1`, the IC50 is 1.17 µM.
In the case of `COCCNC(=O)COC(=O)c1ccc(OCC(=O)Nc2ccccc2OC)c(OC)c1`, the IC50 was 22 µM (inactive).
Under `CCOCc1c(C(=O)NC2=Nc3ccccc3NC(CC)=C2C(=O)OCC)oc2ccccc12` stands 4.85 µM; under `COc1cc(C(=O)N/N=C/c2sc(N3CCOCC3)nc2-c2ccccc2)cc(OC)c1OC`, 30.9 µM (inactive); under `COc1ccc(C(C(=O)NC2CCCC2)N(C(=O)c2snc(C(N)=O)c2N)c2cccc(O)c2)cc1` (configuration not stated), 13.3 µM (inactive).
`O=C1c2ccccc2C(=O)N1CCCCSc1nc2ccccc2c(=O)n1CCCN1CCOCC1`: the IC50 is > 79 µM (inactive).
As to `COC(=O)C1=C(C)N(CCc2ccc(OC)cc2)C(=O)C1`, the IC50 was 33.5 µM (inactive).
In the case of `Cc1ccc(Cn2c(CCNc3nc(-c4ccc(Cl)c([N+](=O)[O-])c4)cs3)nc3cc(C(=O)NCCCO)ccc32)cc1`, the IC50 is > 79 µM (inactive).
As to `Cc1ccc(NC(=O)c2cc(-c3cccs3)nc3ccccc23)nc1`, the IC50 was > 79 µM (inactive).
In the case of `O=C1N[C@H](Cc2ccccc2)COC(=O)[C@@H](Cc2ccc(F)cc2)C/C=C\C[C@H]1CC(=O)N(CCO)Cc1ccccc1`, the IC50 is 19.3 µM (inactive).
With `CCOc1ccc2ccccc2c1C(=O)N[C@@H]1C(=O)N2[C@@H]1SC(C)(C)[C@@H]2C(=O)O`, the IC50 was 36.1 µM (inactive).
As to `CC(=O)c1cccc(-c2cnc3c(NC=O)cc(-c4cccc(C(=O)N(C)C)c4)cn23)c1`, the IC50 was 39.7 µM (inactive).
Under `COc1ccc(C(C(=O)NCc2ccccc2)N(Cc2ccco2)C(=O)c2snc(C(N)=O)c2N)cc1` (configuration not stated) stands 6.17 µM.
`O=C(CSc1ccc2nnc(-c3ccc(F)cc3)n2n1)N1CCCc2ccccc21`: the IC50 is 16.8 µM (inactive).
The value for `Cc1ccc(NC(=O)c2nc[nH]c2C(=O)NCCCNC(=O)c2[nH]cnc2C(=O)Nc2ccc(C)cc2)cc1` was 1.33 µM; that for `COc1cc(NC(=O)c2csc(-c3ccncc3)n2)cc(C(=O)Nc2cccc(C(F)(F)F)c2)c1` was 7.25 µM; that for `CCOCCCNC(=O)CCC(=O)NNc1nc2ccccc2c2nc(-c3ccccc3)nn12` was 35.6 µM (inactive).
As to `Cn1nc(C(=O)Nc2nc(-c3ccccn3)cs2)c2ccccc2c1=O`, the IC50 was > 79 µM (inactive).
For the compound `CC(C)(C)OC(=O)N1CCC[C@H]1c1nnc(SCC(=O)Nc2ccc(Br)cc2)o1`, the IC50 was 19.8 µM (inactive).
Consider `COc1ccc(C(C(=O)NCc2ccccc2)N(Cc2cccs2)C(=O)c2cnccn2)cc1` (configuration not stated), for which the IC50 was 23 µM (inactive).
Under `CCOC(=O)c1c2c3c(cccc3n(C)c1=O)C(=O)c1ccccc1-2` stands 15.8 µM (inactive); under `COC(=O)c1ccccc1NC(=O)/C=C/c1cc(OC)c(OC)c(OC)c1`, > 79 µM (inactive).
The value for `COc1cc(C(=O)N/N=C/c2ccc(OC(=O)c3ccccc3)c(OC)c2)ccc1O` was 14.8 µM (inactive); that for `O=CNc1cc(-c2ccc(C(=O)NC3CC3)cc2)cn2c(-c3ccc(F)c(Cl)c3)cnc12` was 17.2 µM (inactive); that for `CCc1nc(N2CCN(C(=O)c3ccco3)CC2)c2oc3ccccc3c2n1` was 24.7 µM (inactive).
As to `NC(=O)c1cccc(-c2coc3c(C(=O)NCCc4ccccc4)cccc23)c1`, the IC50 is 13.3 µM (inactive).
`Cc1ncc(CO)c2cc(C(=O)Nc3ccccc3Cl)c(=Nc3cccc(C(N)=O)c3)oc12`: the IC50 is 2.43 µM.
With `COc1cc(NC(=O)c2ccco2)c(C(=O)OCC(=O)c2c[nH]c3ccccc23)cc1OC`, the IC50 is 6.43 µM.
The value for `CC(C)(C)OC(=O)C[C@H]1C/C=C\C[C@H](CC(=O)N[C@H](CO)Cc2ccccc2)C(=O)N[C@H](Cc2ccccc2)COC1=O` was 59.9 µM (inactive); that for `CCOC(=O)c1nc(Nc2ccc(C(=O)OC)cc2)c2ccccc2n1` was > 79 µM (inactive).
As to `COc1ccc(-c2cc3nc(-c4ccccc4)cc(N4CCN(C(C)=O)CC4)n3n2)cc1`, the IC50 is 16.1 µM (inactive).
Regarding `O=C(NCC(=O)N(Cc1cccs1)C(C(=O)NC1CCCC1)c1ccco1)c1cccs1` (configuration not stated), the IC50 is 24.5 µM (inactive).
As to `Cc1ccccc1N(C(=O)c1snc(C(N)=O)c1N)C(C(=O)NCc1ccccc1)c1ccc(O)cc1` (configuration not stated), the IC50 was 18 µM (inactive).
Turning to `Cc1ccc(CN(C(=O)CNC(=O)c2cccs2)C(C(=O)NCC2CCCO2)c2ccccc2)cc1` (configuration not stated), the IC50 is 19.1 µM (inactive).
Turning to `O=C(CN(c1ccc2c(c1)OCCO2)S(=O)(=O)c1ccccc1)Nc1ccc2c(c1)OCO2`, the IC50 was 14.7 µM (inactive).
The value for `Cn1c(=O)[nH]c(=O)c2c1nc(Br)n2CC(O)COc1ccc(Cl)cc1` (configuration not stated) was 22.8 µM (inactive).
Under `C[C@@H]1ON(C)[C@H]2C[C@H]3c4[nH]c5ccc(-c6ccc7c(c6)OCO7)cc5c4CCN3C[C@@H]12` stands > 79 µM (inactive); under `O=C(N/N=C/c1ccccn1)c1ccc(NC(=O)c2cccc([N+](=O)[O-])c2)cc1`, > 79 µM (inactive); under `COc1cccc(-c2cnc3c(NC(C)=O)cc(-c4cccc(NS(C)(=O)=O)c4)cn23)c1`, 15.4 µM (inactive).
Consider `COc1cccc(/C=N/NC(=O)c2oc3nc(-c4ccccc4)cc(-c4ccco4)c3c2N)c1`, for which the IC50 was 10.5 µM (inactive).
As to `C=CC[C@@H](CC(=O)NCCO)C(=O)NC[C@H](OC(=O)[C@@H](CC=C)Cc1ccc(F)cc1)c1ccccc1`, the IC50 is 11.9 µM (inactive).
In the case of `CCOc1ccccc1Nc1nnc(SCc2nnc(-c3cc(OC)c(OC)c(OC)c3)o2)s1`, the IC50 was 12.8 µM (inactive).
With `COc1ccc(C=CC(=O)c2ccc3cc(OC)c(OC)cc3c2)cc1OC`, the IC50 was 11.7 µM (inactive).
As to `CC(C)(C)NC(=O)c1cccc(NC(=O)c2ccc(NC(=O)c3ccco3)cc2)c1`, the IC50 was 18.9 µM (inactive).
Turning to `CC(=O)Nc1ccc(C(=O)N/N=C/c2ccccc2OC(=O)c2ccc(Cl)cc2)cc1`, the IC50 was 14.7 µM (inactive).
Turning to `O=C(Nc1ccccc1)c1nc[nH]c1C(=O)NCCCCCCNC(=O)c1[nH]cnc1C(=O)Nc1ccccc1`, the IC50 was 4.44 µM.
On to `COc1ccnc(Oc2ccccc2)c1C(=O)N/C=N/OCc1ccc(F)cc1Cl`, for which the IC50 is 8.39 µM.
